Experiments:
Test in all cases: relative viability (nuclei count vs DMSO), 5 days (fraction); higher = more cells survive
NCI-H2347 = system: NCI-H2347
Outline: (§1)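 Five library-drug doses in √10 steps were combined with a fixed anchor-drug dose, or a single drug was given alone, by pin tool to lung cancer cell lines in 1536-well plates the day after seeding. Nuclei were stained and counted after 5 days. Relative viability is the nuclei count in treated wells over that in vehicle wells, taken as the median of duplicate plates.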

NCI-H2126 = system: NCI-H2126
Outline: as §1

H3255 = system: H3255
Outline: as §1

PC-14 = system: PC-14
Outline: as §1

SK-LU-1 = system: SK-LU-1
Outline: as §1

NCI-H2023 = system: NCI-H2023
Outline: as §1

SW 1573 = system: SW 1573
Outline: as §1

NCI-H647 = system: NCI-H647
Outline: as §1

NCI-H727 = system: NCI-H727
Outline: as §1

HOP-62 = system: HOP-62
Outline: as §1

NCI-H2009 = system: NCI-H2009
Outline: as §1

NCI-H1915 = system: NCI-H1915
Outline: as §1

NCI-H1650 = system: NCI-H1650
Outline: as §1

EMC-BAC-2 = system: EMC-BAC-2
Outline: as §1

NCI-H1993 = system: NCI-H1993
Outline: as §1

NCI-H322M = system: NCI-H322M
Outline: as §1

LCLC-97TM1 = system: LCLC-97TM1
Outline: as §1

NCI-H2085 = system: NCI-H2085
Outline: as §1

LXF-289 = system: LXF-289
Outline: as §1

BEN = system: BEN
Outline: as §1

`Clc1ccc(Nc2nnc(Cc3ccncc3)c3ccccc23)cc1` [Vatalanib] + CC1(C)CCC(c2ccc(Cl)cc2)=C(CN2CCN(c3ccc(C(=O)NS(=O)(=O)c4ccc(N[C@H](CCN5CCOCC5)CSc5ccccc5)c(S(=O)(=O)C(F)(F)F)c4)cc3)CC2)C1 [Navitoclax] (partner 0.5 µM) was tested, and the relative viability (NCI-H2347; first compound 0.04 µM) was 0.861, the relative viability (NCI-H2347; first compound 0.1265 µM) was 0.78 and the relative viability (NCI-H2347; first compound 0.4 µM) was 0.885. For the same compound, the relative viability (NCI-H2347; first compound 1.265 µM) was 0.739, the relative viability (NCI-H2347; first compound 4 µM) was 0.796 and the relative viability (NCI-H2126; first compound 0.04 µM) was 0.834. For the same compound, the relative viability (NCI-H2126; first compound 0.1265 µM) was 0.914, the relative viability (NCI-H2126; first compound 0.4 µM) was 0.851 and the relative viability (NCI-H2126; first compound 1.265 µM) was 0.801. The relative viability (NCI-H2126; first compound 4 µM) was 0.76, the relative viability (H3255; first compound 0.04 µM) was 0.608 and the relative viability (H3255; first compound 0.1265 µM) was 0.469. It also gave a relative viability (H3255; first compound 0.4 µM) of 0.458, a relative viability (H3255; first compound 1.265 µM) of 0.444 and a relative viability (H3255; first compound 4 µM) of 0.521. The relative viability (PC-14; first compound 0.04 µM) was 1.04, the relative viability (PC-14; first compound 0.1265 µM) was 0.941 and the relative viability (PC-14; first compound 0.4 µM) was 1.07. For the same compound, the relative viability (PC-14; first compound 1.265 µM) was 1.03, the relative viability (PC-14; first compound 4 µM) was 0.997 and the relative viability (SK-LU-1; first compound 0.04 µM) was 0.755. For the same compound, the relative viability (SK-LU-1; first compound 0.1265 µM) was 0.594, the relative viability (SK-LU-1; first compound 0.4 µM) was 0.742 and the relative viability (SK-LU-1; first compound 1.265 µM) was 0.832. It also gave a relative viability (SK-LU-1; first compound 4 µM) of 0.82, a relative viability (NCI-H2023; first compound 0.04 µM) of 1 and a relative viability (NCI-H2023; first compound 0.1265 µM) of 1.02. The relative viability (NCI-H2023; first compound 0.4 µM) was 1.08, the relative viability (NCI-H2023; first compound 1.265 µM) was 0.892 and the relative viability (NCI-H2023; first compound 4 µM) was 0.982. It also gave a relative viability (SW 1573; first compound 0.04 µM) of 0.938, a relative viability (SW 1573; first compound 0.1265 µM) of 1.03 and a relative viability (SW 1573; first compound 0.4 µM) of 1.02. The relative viability (SW 1573; first compound 1.265 µM) was 0.872, the relative viability (SW 1573; first compound 4 µM) was 0.969 and the relative viability (NCI-H647; first compound 0.04 µM) was 1.08. For the same compound, the relative viability (NCI-H647; first compound 0.1265 µM) was 1.01, the relative viability (NCI-H647; first compound 1.265 µM) was 1.05 and the relative viability (NCI-H647; first compound 4 µM) was 0.957. The relative viability (NCI-H727; first compound 0.04 µM) was 0.428, the relative viability (NCI-H727; first compound 0.1265 µM) was 0.403 and the relative viability (NCI-H727; first compound 0.4 µM) was 0.516. For the same compound, the relative viability (NCI-H727; first compound 1.265 µM) was 0.407, the relative viability (NCI-H727; first compound 4 µM) was 0.46 and the relative viability (HOP-62; first compound 0.04 µM) was 1.05. For the same compound, the relative viability (HOP-62; first compound 0.1265 µM) was 0.958, the relative viability (HOP-62; first compound 0.4 µM) was 1.07 and the relative viability (HOP-62; first compound 1.265 µM) was 0.949. It also gave a relative viability (HOP-62; first compound 4 µM) of 1.07, a relative viability (NCI-H2009; first compound 0.04 µM) of 1.18 and a relative viability (NCI-H2009; first compound 0.1265 µM) of 1.09. It also gave a relative viability (NCI-H2009; first compound 0.4 µM) of 1.24, a relative viability (NCI-H2009; first compound 1.265 µM) of 1.12 and a relative viability (NCI-H2009; first compound 4 µM) of 1.13. It also gave a relative viability (NCI-H1915; first compound 0.04 µM) of 0.805, a relative viability (NCI-H1915; first compound 0.1265 µM) of 0.796 and a relative viability (NCI-H1915; first compound 0.4 µM) of 0.771. The relative viability (NCI-H1915; first compound 1.265 µM) was 0.794, the relative viability (NCI-H1915; first compound 4 µM) was 0.779 and the relative viability (NCI-H1650; first compound 0.04 µM) was 1.32. It also gave a relative viability (NCI-H1650; first compound 0.1265 µM) of 1.2, a relative viability (NCI-H1650; first compound 0.4 µM) of 1.41 and a relative viability (NCI-H1650; first compound 1.265 µM) of 0.951. The relative viability (NCI-H1650; first compound 4 µM) was 1.17, the relative viability (EMC-BAC-2; first compound 0.04 µM) was 1.18 and the relative viability (EMC-BAC-2; first compound 0.1265 µM) was 1.12. It also gave a relative viability (EMC-BAC-2; first compound 0.4 µM) of 1.23, a relative viability (EMC-BAC-2; first compound 1.265 µM) of 1.15 and a relative viability (EMC-BAC-2; first compound 4 µM) of 1.14. It also gave a relative viability (NCI-H1993; first compound 0.04 µM) of 0.894, a relative viability (NCI-H1993; first compound 0.1265 µM) of 0.935 and a relative viability (NCI-H1993; first compound 0.4 µM) of 0.826. For the same compound, the relative viability (NCI-H1993; first compound 1.265 µM) was 0.789, the relative viability (NCI-H1993; first compound 4 µM) was 0.63 and the relative viability (NCI-H322M; first compound 0.04 µM) was 1.22. It also gave a relative viability (NCI-H322M; first compound 0.1265 µM) of 1.21, a relative viability (NCI-H322M; first compound 0.4 µM) of 1.27 and a relative viability (NCI-H322M; first compound 1.265 µM) of 1.14. For the same compound, the relative viability (NCI-H322M; first compound 4 µM) was 1.09, the relative viability (LCLC-97TM1; first compound 0.04 µM) was 0.631 and the relative viability (LCLC-97TM1; first compound 0.1265 µM) was 0.511. For the same compound, the relative viability (LCLC-97TM1; first compound 0.4 µM) was 0.488, the relative viability (LCLC-97TM1; first compound 1.265 µM) was 0.401 and the relative viability (LCLC-97TM1; first compound 4 µM) was 0.38. It also gave a relative viability (NCI-H2085; first compound 0.04 µM) of 1.12, a relative viability (NCI-H2085; first compound 0.1265 µM) of 1.25 and a relative viability (NCI-H2085; first compound 0.4 µM) of 1.29. For the same compound, the relative viability (NCI-H2085; first compound 1.265 µM) was 1.05, the relative viability (NCI-H2085; first compound 4 µM) was 1.01 and the relative viability (LXF-289; first compound 0.04 µM) was 0.971. The relative viability (LXF-289; first compound 0.1265 µM) was 0.901, the relative viability (LXF-289; first compound 0.4 µM) was 0.989 and the relative viability (LXF-289; first compound 1.265 µM) was 0.852. It also gave a relative viability (LXF-289; first compound 4 µM) of 0.899, a relative viability (BEN; first compound 0.04 µM) of 0.0773 and a relative viability (BEN; first compound 0.1265 µM) of 0.0662. For the same compound, the relative viability (BEN; first compound 0.4 µM) was 0.0617, the relative viability (BEN; first compound 1.265 µM) was 0.0622 and the relative viability (BEN; first compound 4 µM) was 0.0608.
